Experimental data published in EPA's ToxRefDB 2.

How the values were obtained:
rat [1] = conditions: Multigenerational reproductive toxicity study, sprague dawley, Oral, Feed, dose end: 2 generation
mouse = conditions: Carcinogenicity, cd1, Oral, Feed, dose end: 18 month, group: systemic
rabbit [2] = conditions: Prenatal developmental toxicity study, new zealand white, Oral, Gavage/Intubation, dose end: 19 GD
rat [3] = conditions: Combined chronic toxicity/carcinogenicity, sprague dawley, Oral, Feed, dose end: 2 year, group: systemic
dog [4] = conditions: Subchronic oral toxicity in nonrodent, beagle, Capsule, dose end: 13 week, group: systemic
rat [5] = conditions: Subchronic oral toxicity in rodents, sprague dawley, Feed, dose end: 13 week, group: systemic, systemic / in life observation / body weight / body weight gain + systemic / organ weight / kidney / relative to body weight
dog [6] = conditions: Chronic toxicity, beagle, Oral, Capsule, dose end: 52 week, group: systemic
rabbit [7] = conditions: Prenatal developmental toxicity study, other, Oral, Gavage/Intubation, dose end: 18 GD
rat [8] = conditions: Subchronic oral toxicity in rodents, fischer, Feed, dose end: 90 day, group: systemic, systemic / pathology microscopic / stomach / erosion + systemic / pathology microscopic / stomach / hyperkeratosis + systemic / pathology …
rat [9] = conditions: Prenatal developmental toxicity study, sprague dawley, Oral, Gavage/Intubation, dose end: 15 GD
[10] = group: offspring, developmental / offspring survival late / viability index / viability index + developmental / offspring survival late / lactation index / …
[11] = group: offspring, developmental / offspring survival late / viability index / viability index + systemic / in life observation / body weight / offspring (pup…
[12] = group: parental, systemic / in life observation / body weight / body weight + systemic / in life observation / body weight / body weight gain + systemic / …
[13] = systemic / in life observation / mortality / mortality + systemic / pathology microscopic / bone marrow / hyperplasia + systemic / pathology…
[14] = systemic / organ weight / brain / relative to body weight
[15] = group: developmental, developmental / developmental malformation / bone / unossified + developmental / developmental malformation / brain / hydrocephalus + …
[16] = group: maternal, reproductive / reproductive performance / aborted / aborted + systemic / in life observation / body weight / body weight gain + systemic / …
[17] = systemic / pathology gross / liver / foci
[18] = systemic / pathology microscopic / thymus / involution + systemic / clinical chemistry / alanine aminotransferase (alt/sgpt) / alanine …
[19] = systemic / pathology microscopic / thymus / involution + systemic / pathology microscopic / epididymis / reduced spermatogenesis + systemic…
[20] = systemic / pathology microscopic / liver / pigmentation + systemic / hematology / erythrocyte (rbc) count differential / erythrocyte (rbc…
[21] = systemic / pathology microscopic / liver / pigmentation + systemic / pathology microscopic / epididymis / inflammation + systemic / …
[22] = group: developmental, developmental / developmental malformation / bone / branched + developmental / developmental malformation / bone / full supernumerary
[23] = group: maternal, systemic / in life observation / body weight / body weight gain + systemic / in life observation / food consumption / food consumption
[24] = group: developmental, developmental / developmental malformation / bone / [other] + developmental / developmental malformation / kidney / dilated renal pelvis + …
[25] = group: maternal, systemic / in life observation / body weight / body weight gain + systemic / in life observation / food consumption / food consumption + …

Compound `CCc1c(C(=O)[O-])c(=O)cnn1-c1ccc(Cl)cc1.[K+]` [Clofencet-potassium] has an LEL (rat [1]; [10]) of 393 mg/kg/day, an LOAEL (rat [1]; [10]) of 393 mg/kg/day and an NEL (rat [1]; [11]) of 38 mg/kg/day. For the same compound, the NOAEL (rat [1]; [11]) was 38 mg/kg/day, the LEL (rat [1]; [12]) was 1600 mg/kg/day and the LOAEL (rat [1]; [12]) was 1600 mg/kg/day. For the same compound, the NEL (rat [1]; [12]) was 393 mg/kg/day, the NOAEL (rat [1]; [12]) was 393 mg/kg/day and the LOAEL (mouse; [13]) was 1230 mg/kg/day. The NOAEL (mouse; [13]) was 501 mg/kg/day, the LEL (mouse; [14]) was 11.4 mg/kg/day and the NEL (mouse; [14]) was < 11.4 mg/kg/day. For the same compound, the LEL (rabbit [2]; [15]) was 500 mg/kg/day, the LOAEL (rabbit [2]; [15]) was 500 mg/kg/day and the NEL (rabbit [2]; [15]) was 150 mg/kg/day. The NOAEL (rabbit [2]; [15]) was 150 mg/kg/day, the LEL (rabbit [2]; [16]) was 500 mg/kg/day and the LOAEL (rabbit [2]; [16]) was 500 mg/kg/day. The NEL (rabbit [2]; [16]) was 150 mg/kg/day, the NOAEL (rabbit [2]; [16]) was 150 mg/kg/day and the LOAEL (rat [3]; systemic / in life observation / clinical signs / urine, discoloration + systemic / pathology gross / lung / foci + systemic / pathology …) was 470 mg/kg/day. The LEL (rat [3]; [17]) was 4.7 mg/kg/day, the NEL (rat [3]; [17]) was < 4.7 mg/kg/day and the NOAEL (rat [3]; systemic / pathology gross / liver / foci + systemic / in life observation / clinical signs / urine, discoloration + systemic / pathology …) was 47 mg/kg/day. For the same compound, the NEL (dog [4]; [18]) was 50 mg/kg/day, the NOAEL (dog [4]; [18]) was 50 mg/kg/day and the LEL (dog [4]; [19]) was 200 mg/kg/day. For the same compound, the LOAEL (dog [4]; [19]) was 200 mg/kg/day, the LEL (rat [5]) was 1480 mg/kg/day and the LOAEL (rat [5]) was 1480 mg/kg/day. For the same compound, the NEL (rat [5]) was 373 mg/kg/day, the NOAEL (rat [5]) was 373 mg/kg/day and the NEL (dog [6]; [20]) was 5 mg/kg/day. The NOAEL (dog [6]; [20]) was 5 mg/kg/day, the LEL (dog [6]; [21]) was 30 mg/kg/day and the LOAEL (dog [6]; [21]) was 30 mg/kg/day.
`CC(C)C1CCC(Cc2ccc(Cl)cc2)C1(O)Cn1cncn1` (stereo unspecified) [Ipconazole] was tested, and the LEL (rabbit [7]; [22]) was 50 mg/kg/day, the LOAEL (rabbit [7]; [22]) was 50 mg/kg/day and the NEL (rabbit [7]; [22]) was 10 mg/kg/day. The NOAEL (rabbit [7]; [22]) was 10 mg/kg/day, the LEL (rabbit [7]; [23]) was 50 mg/kg/day and the LOAEL (rabbit [7]; [23]) was 50 mg/kg/day. For the same compound, the NEL (rabbit [7]; [23]) was 10 mg/kg/day, the NOAEL (rabbit [7]; [23]) was 10 mg/kg/day and the LEL (rat [8]) was 29.9 mg/kg/day. It also gave an LOAEL (rat [8]) of 29.9 mg/kg/day, an NEL (rat [8]) of 7.22 mg/kg/day and an NOAEL (rat [8]) of 7.22 mg/kg/day. It also gave an LEL (rat [9]; [24]) of 30 mg/kg/day, an LOAEL (rat [9]; [24]) of 30 mg/kg/day and an NEL (rat [9]; [24]) of 10 mg/kg/day. It also gave an NOAEL (rat [9]; [24]) of 10 mg/kg/day, an LOAEL (rat [9]; [23]) of 30 mg/kg/day and an LEL (rat [9]; [25]) of 30 mg/kg/day. For the same compound, the NEL (rat [9]; [25]) was 10 mg/kg/day and the NOAEL (rat [9]; [25]) was 10 mg/kg/day.
